Results taken from PubChem BioAssay AID540269 (Sanford-Burnham Center for Chemical Genomics, 2011).
pIC50: −log10 of the molar value. “And” between values parts separate entries of the source, which are not always exact repeats. Identical values can stand only once. The source made the active and inactive calls. No rule for the calls is given here.

These molecules were tested against glucose-6-phosphate dehydrogenase-6-phosphogluconolactonase (Plasmodium falciparum 3D7) (assay: inhibition of P. falciparum G6PD activity – biochemical, kinetic NADPH detection, orthogonal assay, dose response (AID 540269)). Settings: purified PfG6PD-6PGL.
For `COc1cc(/C=C/C(=O)c2ccc([N+](=O)[O-])o2)ccc1O`, the IC50 was > 80 µM (inactive). For `CN(CCO)c1cc(Sc2nc3ccccc3s2)c2nonc2c1[N+](=O)[O-]`, the IC50 was > 80 µM (inactive). For `COC(=O)c1ccccc1NC1=C/C(=N\S(=O)(=O)c2cccs2)c2ccccc2C1=O`, the pIC50 was 4.45 and 4.22. Work on `COC(=O)[C@H](CCSC)NC(=O)c1cc2c(cn1)[nH]c1ccccc12` yielded a pIC50 of 4.69. Work on `Cc1ccc(-c2csc(NC(=O)c3ccccc3F)c2C(=O)O)cc1` yielded a pIC50 of 4.27. `CCCCOc1ccc(Cc2n[nH]c(=S)n2N)cc1` was tested, and the IC50 was > 80 µM (inactive). Molecule `CC(=O)Nc1ccc2sn(-c3ccccc3)c(=O)c2c1` has a pIC50 of 4.62. In the case of `COc1ccc(OCc2nnc3n2N=C(c2ccccc2)C(CC(=O)O)S3)cc1` (stereo not drawn), the IC50 was > 80 µM (inactive). With `CN(C)c1cccc2c1c(NC(=O)c1ccc(F)cc1)nn2C` the IC50 was > 80 µM (inactive). With `O=C(CCSCCC(=O)NN=Cc1ccccc1)NN=Cc1ccccc1` the IC50 was > 80 µM (inactive). For `COc1c(O)c(O)c2oc(-c3ccccc3)cc(=O)c2c1OC`, the pIC50 was 4.17. `C=CCSc1nc2sc3c(c2c(=O)n1CC)CCc1ccccc1-3` was tested, and the IC50 was > 80 µM (inactive). With `COc1ccc(NS(=O)(=O)c2ccc(N3CCCC3)c(NC(=S)Nc3cccc(C)c3C)c2)cc1` the IC50 was > 80 µM (inactive). `Cc1c(N=C2C=C(Br)C(=O)C(Br)=C2)c(=O)n(-c2ccccc2)n1C` was tested, and the IC50 was > 80 µM (inactive). In the case of `O=C(Nc1nnc(S(=O)(=O)N2CCCC2)s1)c1cccc([N+](=O)[O-])c1`, the IC50 was > 80 µM (inactive). In the case of `c1ccc(SSc2ccccn2)nc1`, the pIC50 was 4.19. With `CN1CC[C@@]2(C)c3cc(O)ccc3N(C)[C@@H]12` the pIC50 was 4.33. In the case of `O=C(Nc1ccccn1)c1sc2cc([N+](=O)[O-])ccc2c1Cl`, the IC50 was > 80 µM (inactive). In the case of `O=C(N/N=C/c1cccc([N+](=O)[O-])c1)C(=O)N1CCCCCC1`, the IC50 was > 80 µM (inactive). With `Cc1c(/C=C/C(=O)c2ccc(Cl)s2)cnn1C` the pIC50 was 4.39. Molecule `COc1cc(/C=N/n2cc(-c3ccccc3)[nH]c2=S)cc(OC)c1O` has a pIC50 of 4.95. `Cc1ccc(S(=O)(=O)SC/C=C/CSS(=O)(=O)c2ccc(C)cc2)cc1` gave a pIC50 of 4.14. `Cc1[nH]c2ccccc2c1/C=N/NC(=O)c1cccc(S(=O)(=O)Nc2ccccc2Cl)c1` gave a pIC50 of 4.23. Work on `O=C(O)c1ccccc1NS(=O)(=O)c1cccc(-n2sc3ccccc3c2=O)c1` yielded a pIC50 of 4.82. In the case of `Cc1ccc(Nc2cc(C)c(O)c(C)c2)cc1`, the IC50 was > 80 µM (inactive). `CCN(CC)c1ccc(NC(=O)c2cccc(C)c2)cc1S(=O)(=O)Nc1ccccc1OC` gave a pIC50 of 4.50. `COc1ccccc1NS(=O)(=O)c1cc(NC(=O)c2ccc(Cl)nc2)ccc1N1CCCC1` was tested, and the pIC50 was 4.49. `CN1CCc2cccc3c2[C@H]1Cc1ccc(O)c(O)c1-3` was tested, and the IC50 was > 80 µM (inactive). For `COCCn1nnnc1C(c1cc2cc(OC)c(OC)cc2[nH]c1=O)N1CCN(c2ccc(O)cc2)CC1` (stereo not drawn), the pIC50 was 4.52. `Nc1[nH]c(=O)[nH]c(=O)c1N=Cc1ccccc1` was tested, and the pIC50 was 4.69. Work on `O=c1c2ccccc2sn1-c1ccc(Cl)cc1Cl` yielded a pIC50 of 4.89. In the case of `Cc1cc(C)c2c(=O)n(CC(=O)Nc3cccc(F)c3)sc2n1`, the pIC50 was 4.38. Molecule `Cc1nnc(Sc2cc(NCCO)c([N+](=O)[O-])c3nonc23)s1` has a pIC50 of 4.44. In the case of `COc1cccc(-c2c(C(=O)N/N=C/c3ccc(C)s3)nnn2-c2nonc2N)c1`, the pIC50 was 4.27. In the case of `O=S(=O)(Nc1c(O)ccc2ccccc12)c1ccccc1`, the pIC50 was 5.03. `COc1c2ccoc2c(OCC=C(C)C)c2oc(=O)ccc12` was tested, and the IC50 was > 80 µM (inactive). With `CCC(C)(C)c1nnc(NC(=O)C2CCN(C(=O)c3ccco3)CC2)s1` the IC50 was > 80 µM (inactive). Molecule `Cc1cc(C)nc(SSc2nc(C)cc(C)n2)n1` has a pIC50 of 4.17.
